Assay results taken from PubChem BioAssay AID1996.
In brackets after ≈: the same amount, converted by molar mass.

conditions: buffer; pH 7.4; 200.0 µM

Compared with COc1ccc(OCC(O)CNS(=O)(=O)c2cccc(Cl)c2)cc1 (centres undefined), CCOc1ccc(NC(=O)Nc2cccc(C)n2)cc1 is lower in solubility kinetic: 51.4 µg/mL (≈ 138 µM) for the first, under 0.2 µg/mL for the second.

First: COc1cc(-c2noc(C)n2)cc(OC)c1OC
Second: COc1cc(CC(=O)OCC(=O)Nc2ccc(N(C)C)cc2)cc(OC)c1OC
The solubility kinetic of the first is lower: 35.7 µg/mL (≈ 143 µM) for the first, over 60.4 µg/mL for the second.

CC(C)(C)Cc1nnc(NC(=O)c2ccco2)s1 and O=C(NC1CCCCNC1=O)c1ccco1 (centres undefined) cannot be ordered by solubility kinetic: over 39.8 µg/mL for the first, over 33.3 µg/mL for the second.

Compared with Cc1cccc(NC(=O)c2cc3ccccc3oc2=O)c1, COc1ccc(CCNC(=O)c2cccc3ccccc23)cc1OC is higher in solubility kinetic: under 0.6 µg/mL for the first, 38 µg/mL (≈ 113 µM) for the second.

First: CC(=O)c1c(C)nc(-c2ccc(OCC(=O)Nc3ccccc3)cc2)n1O
Second: Cc1ccc(NC(=O)CN(C)C(=O)COc2cccc3ccc(C)nc23)cc1
The solubility kinetic of the first is 13-fold higher: 51.3 µg/mL (≈ 140 µM) for the first, 3.9 µg/mL (≈ 10.3 µM) for the second.

COC(=O)c1cc(S(=O)(=O)NCCCc2ccco2)c[nH]1 and COCCN1C(=O)c2ccc(C(=O)NCc3ccco3)cc2C1=O cannot be ordered by solubility kinetic: over 46.9 µg/mL for the first, over 49.2 µg/mL for the second.

CCCNC(=O)COCc1cc(-c2ccc3c(c2)OCO3)on1 and Cc1cc(NC(=O)C2CC(=O)N(c3ccccc3C)C2)no1 (centres undefined) cannot be ordered by solubility kinetic: over 47.7 µg/mL for the first, over 44.9 µg/mL for the second.

First: O=C(Nc1nc2ccsc2c(=O)s1)c1ccc(F)cc1Cl
Second: COC(=O)c1sccc1NC(=O)c1c(Cl)cccc1Cl
The solubility kinetic of the first is lower: under 0.4 µg/mL for the first, 0.7 µg/mL (≈ 2.12 µM) for the second.

Going from O=C(Nc1ccccc1)N1CCCN(c2ccc(C(F)(F)F)cn2)CC1 to O=C1CC(N2CCN(c3ccc(F)cc3)CC2)C(=O)N1c1ccccc1 (centres undefined), the solubility kinetic rises from 9.7 µg/mL (≈ 26.6 µM) to 49.4 µg/mL (≈ 140 µM) (5.1-fold).

Cc1nc(SCc2cccnc2)[nH]c(=O)c1C and Cn1c(SCc2cccnc2)nc2c(c1=O)SCC2 cannot be ordered by solubility kinetic: over 37.1 µg/mL for the first, over 43.7 µg/mL for the second.

First: O=c1c(Cc2ccc(Cl)cc2Cl)c(O)ccn1Cc1ccncc1
Second: Fc1ccc(F)c(CNc2ncnc3cc(Cl)ccc23)c1
The solubility kinetic of the first is higher: over 54.2 µg/mL for the first, 1.3 µg/mL (≈ 4.25 µM) for the second.

Going from COc1ccc2c(-c3ccccc3)cc(=S)[nH]c2c1 to COc1ccc(CNC(=O)c2sc(=S)n(-c3ccccc3)c2N)cc1, the solubility kinetic falls from 2.4 µg/mL (≈ 8.98 µM) to 0.7 µg/mL (≈ 1.88 µM) (3.4-fold).

Going from COc1cccc(C(=O)Nc2ccc(C(=O)NCC3CCCO3)cc2)c1 (centres undefined) to O=C(CNC(=O)c1ccc(Br)cc1)Nc1ccc2c(c1)CCC2, the solubility kinetic falls from 45.2 µg/mL (≈ 128 µM) to 2.5 µg/mL (≈ 6.7 µM) (18-fold).

First: O=c1c2ccccc2ncn1-c1cccc([N+](=O)[O-])c1
Second: O=C1c2ccc([N+](=O)[O-])cc2S(=O)(=O)N1Cc1ccccc1
The solubility kinetic of the first is 2.2-fold lower: 3.8 µg/mL (≈ 14.2 µM) for the first, 8.3 µg/mL (≈ 26.1 µM) for the second.

Compared with Cc1ccc(C)c(OCC(=O)Nc2ccc(N3CCOCC3)cc2)c1, COc1ccc(C)cc1NC(=O)CN1C(=O)COc2ccc(C)cc21 is 2.9-fold lower in solubility kinetic: 6.1 µg/mL (≈ 17.9 µM) for the first, 2.1 µg/mL (≈ 6.17 µM) for the second.

Going from Cc1cc(C)c(C)c(S(=O)(=O)N2CCN(C(=O)c3cc(S(=O)(=O)N4CCOCC4)ccc3F)CC2)c1C to CCN1CCN(C(=O)CN2C(=O)COc3ccc(C)cc32)CC1, the solubility kinetic rises from 12.7 µg/mL (≈ 22.9 µM) to over 47.6 µg/mL.

First: CCc1cc2c(Nc3ccccc3O)nc(C)nc2s1.Cl
Second: Cc1cc(-c2ccccc2)c2c(n1)sc1c(O)cc(=O)[nH]c12
The solubility kinetic of the first is lower: under 0.2 µg/mL for the first, over 46.3 µg/mL for the second.

Going from CC(C)Oc1cccc(C(=O)C2CCCN(C3CCOCC3)C2)c1 (centres undefined) to CC1CC(C)CN(C(=O)c2cccc(NC(=O)CC3SC(N4CCCCC4)=NC3=O)c2)C1 (centres undefined), the solubility kinetic rises from 31 µg/mL (≈ 93.5 µM) to 67.1 µg/mL (≈ 147 µM) (2.2-fold).

First: Cc1ccc(S(=O)(=O)N(C)CC(=O)NCC(=O)Nc2ccc(F)c(F)c2F)cc1
Second: Cc1ccc(S(=O)(=O)N(OCc2ccccc2)C(C)C(=O)O)cc1 (centres undefined)
The solubility kinetic of the first is 8.1-fold lower: 6.4 µg/mL (≈ 14.9 µM) for the first, 52.1 µg/mL (≈ 149 µM) for the second.

Going from CC(=O)Nc1ccc(S(=O)(=O)N2CCCCC2C(=O)O)cc1 (centres undefined) to CCS(=O)(=O)c1ccc(O)c(NC(=O)Nc2ccc(C(C)(C)C)cc2)c1, the solubility kinetic falls from 44.4 µg/mL (≈ 136 µM) to 0.8 µg/mL (≈ 2.12 µM) (55-fold).

CCOC(=O)c1cnc(SCC(=O)NNC(=O)c2ccco2)nc1N and CCOC(=O)/C(=C\c1ccc(OC)c(OC)c1)C(=O)c1cccnc1 cannot be ordered by solubility kinetic: over 54.8 µg/mL for the first, over 51.2 µg/mL for the second.

CCOC(=O)CC1C(=O)NCCN1C(=O)c1ccc(C)cc1 (centres undefined) and Cc1ccc(-c2c(C(=O)O)c(C(=O)O)c3n2CSC3)cc1 cannot be ordered by solubility kinetic: over 45.7 µg/mL for the first, over 45.5 µg/mL for the second.

Compared with CC1CC(C)CN(C(=O)COC(=O)c2c[nH]c3ccccc23)C1 (centres undefined), Cn1cc(C(O)CN2CCCCC2)c2ccccc21 (centres undefined) is 3-fold higher in solubility kinetic: 12.7 µg/mL (≈ 40.4 µM) for the first, 38.1 µg/mL (≈ 147 µM) for the second.

Compared with C=CCOn1c(=O)c(-c2ccc(F)cc2)[n+]([O-])c2ccccc21, COc1ccccc1/C=N/OC(=O)c1ccc(F)cc1 is 2.9-fold lower in solubility kinetic: 2 µg/mL (≈ 6.4 µM) for the first, 0.7 µg/mL (≈ 2.56 µM) for the second.

Going from CCC(Cc1ccccc1)NC(=O)/C=C/c1ccco1 (centres undefined) to NC(=O)CSc1nccn1Cc1ccccc1, the solubility kinetic rises from 23.7 µg/mL (≈ 88 µM) to over 37.1 µg/mL.

First: CC(=O)Nc1ccc(-c2nc3ccc(NC(C)=O)cc3o2)cc1
Second: O=C(NCc1csc(-c2cccs2)n1)Nc1ccc(C(F)(F)F)cc1
The solubility kinetic of the first is higher: 2.2 µg/mL (≈ 7.11 µM) for the first, under 0.3 µg/mL for the second.

C[C@@H]1CN(Cc2nc(-c3ccc(Cl)cc3)no2)C[C@H](C)O1 and COC1CCCN(Cc2nc(Cc3ccccc3F)no2)C1 (centres undefined) are within 1.5-fold of each other in solubility kinetic: 44 µg/mL (≈ 143 µM) for the first, 37.9 µg/mL (≈ 124 µM) for the second.

Going from CC1(C)N=c2ccc([N+](=O)[O-])c(N)c2=[N+]1[O-] to NS(=O)(=O)c1ccc(Sc2nc3ccccc3s2)c([N+](=O)[O-])c1, the solubility kinetic falls from 30 µg/mL (≈ 135 µM) to 1.7 µg/mL (≈ 4.63 µM) (18-fold).

Going from O=C(NNC(=O)c1cc([N+](=O)[O-])ccc1Cl)c1cccnc1 to CC(C)CC(=O)c1c[nH]c(C(=O)NCc2cccnc2)c1, the solubility kinetic falls from over 48.1 µg/mL to 30.9 µg/mL (≈ 108 µM).

O=C(Nc1ccccc1Cl)OCc1cncs1 and CC(=O)Nc1csc2ccccc12 cannot be ordered by solubility kinetic: 35.1 µg/mL (≈ 131 µM) for the first, over 28.7 µg/mL for the second.

First: NC(=O)CN1C(=O)C(=O)N(Cc2ccc(F)cc2)C1=O
Second: O=C(COC(=O)c1ccc(Br)o1)NCc1ccc(Cl)cc1
The solubility kinetic of the first is higher: over 41.9 µg/mL for the first, 7.2 µg/mL (≈ 19.3 µM) for the second.

First: O=c1onc(-c2c(F)cccc2F)n1-c1ccccc1Cl
Second: O=c1c(Cl)c2oc3ccccc3nc-2c2ccccc12
The solubility kinetic of the first is 4.2-fold lower: 1 µg/mL (≈ 3.24 µM) for the first, 4.2 µg/mL (≈ 14.9 µM) for the second.

Br.O=C(CN1CCCCC1)c1ccccc1F and CC(=NCCN1CCCCC1)c1c(O)n(-c2ccccc2)c(=O)[nH]c1=O cannot be ordered by solubility kinetic: over 45.3 µg/mL for the first, over 53.5 µg/mL for the second.

Compared with Cc1ccc(N=C2CSC(=O)N2)cc1, CN1CCc2c(sc(N)c2C(=O)c2ccc(Cl)cc2)C1 is 1.8-fold higher in solubility kinetic: 23.4 µg/mL (≈ 113 µM) for the first, 41.5 µg/mL (≈ 135 µM) for the second.

Compared with N#C/C(=C/c1ccc(-c2ccccc2[N+](=O)[O-])o1)C(N)=O, O=C(NC(=S)NCc1nc2ccccc2[nH]1)c1ccc(F)cc1 is 27-fold higher in solubility kinetic: 1.7 µg/mL (≈ 6 µM) for the first, 45.3 µg/mL (≈ 138 µM) for the second.

CC(Oc1ccccc1)C(=O)N1CCc2ccccc2C1 (centres undefined) and COc1cccc(N2CCN(CC(=O)NC(C)c3ccccc3)CC2)c1 (centres undefined) cannot be ordered by solubility kinetic: over 42.2 µg/mL for the first, 45 µg/mL (≈ 127 µM) for the second.

Going from O=C(Nc1cccnc1Cl)c1noc2c1CCc1ccccc1-2 to COc1cccc(NC(=O)c2cccnn2)c1, the solubility kinetic rises from under 0.2 µg/mL to over 34.4 µg/mL.

First: COS(=O)(=O)[O-].Cn1c(-c2ccc3ccccc3n2)[n+](C)c2ccccc21
Second: Cc1ccccc1-c1nc(S(=O)(=O)c2ccccc2)c(NCCCN2CCOCC2)o1
The solubility kinetic of the first is higher: over 57.8 µg/mL for the first, 44.9 µg/mL (≈ 102 µM) for the second.

Going from O=C(O)C1(c2ccccc2)CCC(Nc2ccccc2)C1 (centres undefined) to CC(=O)C1=C(O)C(=O)N(Cc2ccco2)C1c1cccc(F)c1 (centres undefined), the solubility kinetic rises from 39.7 µg/mL (≈ 141 µM) to over 47.3 µg/mL.

First: CCSc1nnc(SCC(=O)Nc2cc(C)on2)s1
Second: CCOc1cc(-c2nc3n(c(=O)c2C#N)CCS3)ccc1O
The solubility kinetic of the first is higher: over 47.5 µg/mL for the first, 5.7 µg/mL (≈ 18.1 µM) for the second.

First: CN1C(=O)/C(=C/c2coc3ccc(O)cc3c2=O)SC1=S
Second: COC(=O)C1=C(C)N(C)C(=O)NC1c1ccc(O)c(Cl)c1 (centres undefined)
The solubility kinetic of the first is lower: under 0.7 µg/mL for the first, over 46.6 µg/mL for the second.

Going from OCCN1CNC(=S)NC1 to CC(C)(C)c1ccc(Oc2ccc(N)cn2)cc1, the solubility kinetic rises from 22.8 µg/mL (≈ 141 µM) to over 36.3 µg/mL.
